According to patent US6645918B1, “N-([1,2,4]triazoloazinyl)thiophenesulfonamide compounds and their use as herbicides” (Dow AgroSciences LLC, priority 2000, dated 2003):

Key:
Assay type in all cases: in vivo
[1] = test system: chickweed (Stellaria media); test: Postemergence herbicidal activity, chickweed; details: foliar spray, visual after 2 weeks, 0 no injury, 100 complete kill
Experimental: (§1) Seeds of the desired test plant species were planted in Grace-Sierra MetroMix® 306 planting mixture, which typically has a pH of 6.0 to 6.8 and an organic matter content of about 30 percent, in plastic pots with a surface area of 64 square centimeters. When required to ensure good germination and healthy plants, a fungicide treatment and/or other chemical or physical treatment was applied. The plants were grown for 7-21 days in a greenhouse with an approximately 15 hr photoperiod which was maintained at about 23-29° C. during the day and 22-28° C. during the night. Nutrients and water were added on a regular basis and supplemental lighting was provided with overhead metal halide 1000 Watt lamps as necessary. The plants were employed for testing when they reached the first or second true leaf stage. A weighed amount of each test compound, determined by the highest rate to be tested, was placed in a 20 mL glass vial and was dissolved in 4 mL of a 97:3 v/v (volume/volume) mixture of acetone and dimethyl sulfoxide to obtain concentrated stock solutions. […] The concentrated stock solutions obtained were diluted with an aqueous mixture containing acetone, water, iso-propyl alcohol, dimethyl sulfoxide, Atplus 411F crop oil concentrate, and Triton X-155 surfactant (methylenebisdiamyl phenoxy polyethoxy ethanol) in a 48.5:39:10:1.5:1.0:0.02 v/v ratio to obtain spray solutions of known concentration. The solutions containing the highest concentration to be tested were prepared by diluting 2 mL aliquots of the stock solution with 13 mL of the mixture and lower concentrations were prepared by dilution of appropriate smaller portions of the stock solution. Approximately 1.5 mL aliquots of each solution of known concentration were sprayed evenly onto each of the test plant pots using a DeVilbiss atomizer driven by compressed air pressure of 2 to 4 psi (140 to 280 kilopascals) to obtain thorough coverage of each plant. Control plants were sprayed in the same manner with the aqueous mixture. In this test an application rate of 1 ppm results in the application of approximately 1 g/ha. The treated plants and control plants were placed in a greenhouse as described above and watered by sub-irrigation to prevent wash-off of the test compounds. After 2 weeks the condition of the test plants as compared with that of the untreated plants was determined visually and scored on a scale of 0 to 100 percent where 0 corresponds to no injury and 100 corresponds to complete kill.

[2] = test system: cocklebur (Xanthium strumarium); test: Postemergence herbicidal activity, cocklebur; details: foliar spray, visual after 2 weeks, 0 no injury, 100 complete kill
Experimental: as §1

[3] = test system: lambsquarters (Chenopodium album); test: Postemergence herbicidal activity, lambsquarters; details: foliar spray, visual after 2 weeks, 0 no injury, 100 complete kill
Experimental: as §1

[4] = test system: morningglory (Ipomoea hederacea); test: Postemergence herbicidal activity, morningglory; details: foliar spray, visual after 2 weeks, 0 no injury, 100 complete kill
Experimental: as §1

[5] = test system: pigweed (Amaranthus retroflexus); test: Postemergence herbicidal activity, pigweed; details: foliar spray, visual after 2 weeks, 0 no injury, 100 complete kill
Experimental: as §1

[6] = test system: velvetleaf (Abutilion theophrasti); test: Postemergence herbicidal activity, velvetleaf; details: foliar spray, visual after 2 weeks, 0 no injury, 100 complete kill
Experimental: as §1

viola (Viola tricolor) = test: Postemergence herbicidal activity, viola; details: foliar spray, visual after 2 weeks, 0 no injury, 100 complete kill
Experimental: as §1

[7] = test system: wild buckwheat (Polygonum convolvulus); test: Postemergence herbicidal activity, wild buckwheat; details: foliar spray, visual after 2 weeks, 0 no injury, 100 complete kill
Experimental: as §1

[8] = test system: blackgrass (Alopecurus myosuroides); test: Postemergence herbicidal activity, blackgrass; details: foliar spray, visual after 2 weeks, 0 no injury, 100 complete kill
Experimental: as §1

[9] = test system: giant foxtail (Setaria faberi); test: Postemergence herbicidal activity, giant foxtail; details: foliar spray, visual after 2 weeks, 0 no injury, 100 complete kill
Experimental: as §1

[10] = test system: Rox orange sorghum (Sorghum bicolor); test: Postemergence herbicidal activity, Rox orange sorghum; details: foliar spray, visual after 2 weeks, 0 no injury, 100 complete kill
Experimental: as §1

wild oats (Avena fatua) [11] = test: Postemergence herbicidal activity, wild oats; details: foliar spray, visual after 2 weeks, 0 no injury, 100 complete kill
Experimental: as §1

[12] = test system: lambsquarters (Chenopodium album); test: Preemergence herbicidal activity, lambsquarters; details: 8.8 g/Ha, soil spray, visual after 3 weeks; 0 no injury, 100 complete kill or no germination
Experimental: (§2) The soil matrix was contained in plastic pots with a surface area of 161 square centimeters. When required to ensure good germination and healthy plants, a fungicide treatment and/or other chemical or physical treatment was applied. A weighed amount, determined by the highest rate to be tested, of each test compound was placed in a 20 mL glass vial and was dissolved in 8 mL of a 97:3 v/v (volume/volume) mixture of acetone and dimethyl sulfoxide to obtain concentrated stock solutions. […] The stock solutions obtained were diluted with a 99.9:0.1 mixture of water and Tween® 155 surfactant (ethoxylated sorbitan fatty acid ester) to obtain application solutions of known concentration. The solutions containing the highest concentration to be tested were prepared by diluting 4 mL aliquots of the stock solution with 8.5 mL of the mixture and lower concentrations were prepared by dilution of appropriate smaller portions of the stock solution. A 2.5 mL aliquot of each solution of known concentration was sprayed evenly onto the soil of each seeded pot using a Cornwall 5.0 mL glass syringe fitted with a TeeJet TN-3 hollow cone nozzle to obtain thorough coverage of the soil in each pot. Control pots were sprayed in the same manner with the aqueous mixture. A highest application rate of 4.48 kg/ha is achieved when 50 mg of test compound is employed. The treated pots and control pots were placed in a greenhouse with an approximately 15 hr photoperiod which was maintained at about 23-29° C. during the day and 22-28° C. during the night. Nutrients and water were added on a regular basis and supplemental lighting was provided with overhead metal halide 1000 Watt lamps as necessary. The water was added by top-irrigation. After 3 weeks the condition of the test plants that germinated and grew as compared with that of the untreated plants that germinated and grew was determined visually and scored on a scale of 0 to 100 percent where 0 corresponds to no injury and 100 corresponds to complete kill or no germination.

[13] = test system: morningglory (Ipomoea hederacea); test: Preemergence herbicidal activity, morningglory; details: 8.8 g/Ha, soil spray, visual after 3 weeks; 0 no injury, 100 complete kill or no germination
Experimental: as §2

[14] = test system: pigweed (Amaranthus retroflexus); test: Preemergence herbicidal activity, pigweed; details: 8.8 g/Ha, soil spray, visual after 3 weeks; 0 no injury, 100 complete kill or no germination
Experimental: as §2

[15] = test system: velvetleaf (Abutilion theophrasti); test: Preemergence herbicidal activity, velvetleaf; details: 8.8 g/Ha, soil spray, visual after 3 weeks; 0 no injury, 100 complete kill or no germination
Experimental: as §2

[16] = test system: wild poinsettia (Euphorbia heterophylla); test: Preemergence herbicidal activity, wild poinsettia; details: 8.8 g/Ha, soil spray, visual after 3 weeks; 0 no injury, 100 complete kill or no germination
Experimental: as §2

[17] = test system: blackgrass (Alopecurus myosuroides); test: Preemergence herbicidal activity, blackgrass; details: 8.8 g/Ha, soil spray, visual after 3 weeks; 0 no injury, 100 complete kill or no germination
Experimental: as §2

[18] = test system: barnyardgrass (Echinochloa crus-galli); test: Preemergence herbicidal activity, barnyardgrass; details: 8.8 g/Ha, soil spray, visual after 3 weeks; 0 no injury, 100 complete kill or no germination
Experimental: as §2

[19] = test system: crabgrass (Digitaria sanguinalis); test: Preemergence herbicidal activity, crabgrass; details: 8.8 g/Ha, soil spray, visual after 3 weeks; 0 no injury, 100 complete kill or no germination
Experimental: as §2

[20] = test system: giant foxtail (Setaria faberi); test: Preemergence herbicidal activity, giant foxtail; details: 8.8 g/Ha, soil spray, visual after 3 weeks; 0 no injury, 100 complete kill or no germination
Experimental: as §2

[21] = test system: Rox orange sorghum (Sorghum bicolor); test: Preemergence herbicidal activity, Rox orange sorghum; details: 8.8 g/Ha, soil spray, visual after 3 weeks; 0 no injury, 100 complete kill or no germination
Experimental: as §2

wild oats (Avena fatua) [22] = test: Preemergence herbicidal activity, wild oats; details: 8.8 g/Ha, soil spray, visual after 3 weeks; 0 no injury, 100 complete kill or no germination
Experimental: as §2

Structure (SMILES): COc1ccsc1S(=O)(=O)Nc1nc2c(Cl)cnc(OC)n2n1 [Compound 2]
- STEME postemergence injury score 0-100 ([1]; 7.8 ppm): 98%
- XANST postemergence injury score 0-100 ([2]; 7.8 ppm): 60%
- CHEAL postemergence injury score 0-100 ([3]; 7.8 ppm): 90%
- IPOHE postemergence injury score 0-100 ([4]; 7.8 ppm): 85%
- AMARE postemergence injury score 0-100 ([5]; 7.8 ppm): 98%
- ABUTH postemergence injury score 0-100 ([6]; 7.8 ppm): 95%
- VIOTR postemergence injury score 0-100 (viola (Viola tricolor); 7.8 ppm): 95%
- POLCO postemergence injury score 0-100 ([7]; 7.8 ppm): 90%
- ALOMY postemergence injury score 0-100 ([8]; 7.8 ppm): 70%
- SETFA postemergence injury score 0-100 ([9]; 7.8 ppm): 98%
- SORBI postemergence injury score 0-100 ([10]; 7.8 ppm): 98%
- AVEFA postemergence injury score 0-100 (wild oats (Avena fatua) [11]; 7.8 ppm): 90%
- CHEAL preemergence injury score 0-100 [12]: 98%
- IPOHE preemergence injury score 0-100 [13]: 80%
- AMARE preemergence injury score 0-100 [14]: 95%
- ABUTH preemergence injury score 0-100 [15]: 75%
- EPHHL preemergence injury score 0-100 [16]: 90%
- ALOMY preemergence injury score 0-100 [17]: 95%
- ECHCG preemergence injury score 0-100 [18]: 75%
- DIGSA preemergence injury score 0-100 [19]: 100%
- SETFA preemergence injury score 0-100 [20]: 100%
- SORBI preemergence injury score 0-100 [21]: 100%
- AVEFA preemergence injury score 0-100 (wild oats (Avena fatua) [22]): 100%

Structure (SMILES): COc1csc(C(F)(F)F)c1S(=O)(=O)Nc1nc2c(OC)cnc(OC)n2n1 [Compound 10]
- STEME postemergence injury score 0-100 ([1]; 15.6 ppm): 98%
- XANST postemergence injury score 0-100 ([2]; 15.6 ppm): 100%
- CHEAL postemergence injury score 0-100 ([3]; 15.6 ppm): 70%
- IPOHE postemergence injury score 0-100 ([4]; 15.6 ppm): 80%
- AMARE postemergence injury score 0-100 ([5]; 15.6 ppm): 95%
- ABUTH postemergence injury score 0-100 ([6]; 15.6 ppm): 90%
- VIOTR postemergence injury score 0-100 (viola (Viola tricolor); 15.6 ppm): 90%
- POLCO postemergence injury score 0-100 ([7]; 15.6 ppm): 70%
- ALOMY postemergence injury score 0-100 ([8]; 15.6 ppm): 50%
- SETFA postemergence injury score 0-100 ([9]; 15.6 ppm): 90%
- SORBI postemergence injury score 0-100 ([10]; 15.6 ppm): 80%
- AVEFA postemergence injury score 0-100 (wild oats (Avena fatua) [11]; 15.6 ppm): 80%
- CHEAL preemergence injury score 0-100 [12]: 95%
- IPOHE preemergence injury score 0-100 [13]: 80%
- AMARE preemergence injury score 0-100 [14]: 100%
- ABUTH preemergence injury score 0-100 [15]: 70%
- EPHHL preemergence injury score 0-100 [16]: 75%
- ALOMY preemergence injury score 0-100 [17]: 90%
- ECHCG preemergence injury score 0-100 [18]: 90%
- DIGSA preemergence injury score 0-100 [19]: 70%
- SETFA preemergence injury score 0-100 [20]: 90%
- SORBI preemergence injury score 0-100 [21]: 100%
- AVEFA preemergence injury score 0-100 (wild oats (Avena fatua) [22]): 90%
